Results from patent US11452731B2, “Method of treating and preventing loss of cognition” (ENDORECHERCHE, INC., priority 2009, dated 2022).
“And” between values parts separate entries of the source, which are not always exact repeats. Identical values can stand only once.

Experiment: Clinical trial ERC-205: DHEA 50 mg daily versus placebo on hot flushes in postmenopausal women (Example 10)
Type: in vivo
Settings: for NUMBER OF MODERATE TO SEVERE HOT FLUSHES PER WEEK (MEAN) / WEIGHTED SEVERITY SCORE OF HOT FLUSHES PER WEEK (MEAN) / NUMBER OF ALL HOT FLUSHES PER WEEK (MEAN): 50 mg, strata ≥71 hot flushes per week at screening; for Number of all hot flushes per week, MEAN / Number of moderate to severe hot flushes per week, MEAN / Weighted severity score of hot flushes per week, MEAN / Mean change from baseline: Frequency of all HF / Mean change from baseline: Frequency of moderate-severe HF / Mean change from baseline: Weighted severity score of HF: DHEA 50 mg daily; for number of all hot flushes per week: women having more than 70 mild, moderate plus severe hot flushes
Procedure: Postmenopausal women experiencing moderate or severe hot flushes per week (as determined by a two week diary) were randomized to receive a daily dose of either placebo or 50 mg DHEA. Fifty evaluable participants (25 patients per arm) were treated for four months with a daily assessment of hot flushes recorded in a diary completed by each participant.
Postmenopausal women aged 40 to 70 years with moderate or severe hot flushes per week, as confirmed by a two-week screening hot flush diary were enrolled after signing informed consent. The protocol was approved by the Institutional Review Board (IRB) of Le Centre Hospitalier de l'Université Laval and by Health Canada.
The primary endpoint was the change from Baseline in the weekly frequency of moderate to severe hot flushes at Week 16, after four months of treatment. The objectives also included the change from Baseline in the weekly frequency of all hot flushes and the change from Baseline in the weekly weighted severity score.
The response endpoint is the patient's paper diary which was filled in daily to specify the number and type of hot flushes as follows:
The hot flush diary began as a Screening diary for two weeks prior to randomization whereby patients had to complete the diary daily, recording the number and severity of hot flushes. The patients had to record an average of 50 or more moderate or severe hot flushes per week over the two-week period to be eligible (i.e., at least 100 hot flushes documented on the two week Screening diary).
Once randomized, the patient completed eight, two-week hot flush diaries upon beginning study medication. The diaries had to be filled out on a daily basis. The first diary was completed over the first two weeks and be returned on the two week visit. The second two-week diary was completed over the next two weeks of the first four week treatment period and was returned at the four week visit. At 4, 8, 12 and 16 week visits, two two-week diaries for hot flushes were collected.

[1] = Screening (mean of 2 w), baseline
[2] = women having 71 or more hot flushes per week at screening
[3] = women having between 50 and 70 per week

C[C@]12CC[C@H](O)CC1=CC[C@@H]1[C@@H]2CC[C@]2(C)C(=O)CC[C@@H]12 [DHEA, dehydroepiandrosterone]
NUMBER OF MODERATE TO SEVERE HOT FLUSHES PER WEEK (MEAN) (Week 14): 32.0 | WEIGHTED SEVERITY SCORE OF HOT FLUSHES PER WEEK (MEAN) (Week 14): 96.6 | NUMBER OF ALL HOT FLUSHES PER WEEK (MEAN) (Week 15): 38.8 | NUMBER OF MODERATE TO SEVERE HOT FLUSHES PER WEEK (MEAN) (Week 15): 34.4 | WEIGHTED SEVERITY SCORE OF HOT FLUSHES PER WEEK (MEAN) (Week 15): 103.6 | NUMBER OF ALL HOT FLUSHES PER WEEK (MEAN) (Week 16): 36.3 | NUMBER OF MODERATE TO SEVERE HOT FLUSHES PER WEEK (MEAN) (Week 16): 31.6 | WEIGHTED SEVERITY SCORE OF HOT FLUSHES PER WEEK (MEAN) (Week 16): 95.2 | Number of all hot flushes per week, MEAN [1]: 75.5±4.4 and 75.7 | Number of moderate to severe hot flushes per week, MEAN [1]: 70.7±4.5 and 70.7 | Weighted severity score of hot flushes per week, MEAN [1]: 187.1±13.9 and 187.1 | Number of all hot flushes per week, MEAN (Week 1): 64.2 | Number of moderate to severe hot flushes per week, MEAN (Week 1): 58.6 | Weighted severity score of hot flushes per week, MEAN (Week 1): 156.0 | Number of all hot flushes per week, MEAN (Week 2): 56.4 | Number of moderate to severe hot flushes per week, MEAN (Week 2): 51.0 | Weighted severity score of hot flushes per week, MEAN (Week 2): 137.5 | Number of all hot flushes per week, MEAN (Week 3): 54.6 | Number of moderate to severe hot flushes per week, MEAN (Week 3): 49.1 | Weighted severity score of hot flushes per week, MEAN (Week 3): 132.5 | Mean change from baseline: Frequency of all HF (Week 4): −20.4 | Mean change from baseline: Frequency of moderate-severe HF (Week 4): −20.6 | Mean change from baseline: Weighted severity score of HF (Week 4): −51.4 | Number of all hot flushes per week, MEAN (Week 4): 55.3±5.8 and 55.3 | Number of moderate to severe hot flushes per week, MEAN (Week 4): 50.1±5.7 and 50.1 | Weighted severity score of hot flushes per week, MEAN (Week 4): 135.7 | Number of all hot flushes per week, MEAN (Week 5): 49.8 | Number of moderate to severe hot flushes per week, MEAN (Week 5): 44.4 | Weighted severity score of hot flushes per week, MEAN (Week 5): 120.9 | Number of all hot flushes per week, MEAN (Week 6): 47.9 | Number of moderate to severe hot flushes per week, MEAN (Week 6): 43.0 | Weighted severity score of hot flushes per week, MEAN (Week 6): 115.2 | Number of all hot flushes per week, MEAN (Week 7): 44.5 | Number of moderate to severe hot flushes per week, MEAN (Week 7): 39.6 | Weighted severity score of hot flushes per week, MEAN (Week 7): 108.3 | Mean change from baseline: Frequency of all HF (Week 8): −31.0 | Mean change from baseline: Frequency of moderate-severe HF (Week 8): −30.1 | Mean change from baseline: Weighted severity score of HF (Week 8): −76.9 | Number of all hot flushes per week, MEAN (Week 8): 44.7±6.3 and 44.7 | Number of moderate to severe hot flushes per week, MEAN (Week 8): 40.2±6.1 and 40.2 | Weighted severity score of hot flushes per week, MEAN (Week 8): 109.4 | Number of all hot flushes per week, MEAN (Week 9): 44.3 | Number of moderate to severe hot flushes per week, MEAN (Week 9): 39.6 | Weighted severity score of hot flushes per week, MEAN (Week 9): 106.5 | Number of all hot flushes per week, MEAN (Week 10): 43.1 | Number of moderate to severe hot flushes per week, MEAN (Week 10): 38.6 | Weighted severity score of hot flushes per week, MEAN (Week 10): 104.5 | Number of all hot flushes per week, MEAN (Week 11): 40.9 | Number of moderate to severe hot flushes per week, MEAN (Week 11): 36.0 | Weighted severity score of hot flushes per week, MEAN (Week 11): 98.2 | Mean change from baseline: Frequency of all HF (Week 12): −36.2 | Mean change from baseline: Frequency of moderate-severe HF (Week 12): −35.6 | Mean change from baseline: Weighted severity score of HF (Week 12): −93.6 | Number of all hot flushes per week, MEAN (Week 12): 39.5±5.9 and 39.5 | Number of moderate to severe hot flushes per week, MEAN (Week 12): 34.7±5.8 and 34.7 | Weighted severity score of hot flushes per week, MEAN (Week 12): 92.7 | Number of all hot flushes per week, MEAN (Week 13): 37.5 | Number of moderate to severe hot flushes per week, MEAN (Week 13): 33.2 | Weighted severity score of hot flushes per week, MEAN (Week 13): 90.1 | Number of all hot flushes per week, MEAN (Week 14): 37.6 | Number of moderate to severe hot flushes per week, MEAN (Week 14): 33.3 | Weighted severity score of hot flushes per week, MEAN (Week 14): 90.9 | Number of all hot flushes per week, MEAN (Week 15): 37.5 | Number of moderate to severe hot flushes per week, MEAN (Week 15): 34.0 | Weighted severity score of hot flushes per week, MEAN (Week 15): 91.8 | Mean change from baseline: Frequency of all HF (Week 16): −39.8 | Mean change from baseline: Frequency of moderate-severe HF (Week 16): −38.1 | Mean change from baseline: Weighted severity score of HF (Week 16): −99.1 | Number of all hot flushes per week, MEAN (Week 16): 36.0±5.7 and 36.0 | Number of moderate to severe hot flushes per week, MEAN (Week 16): 32.2±5.8 and 32.2 | Weighted severity score of hot flushes per week, MEAN (Week 16): 87.2±15.8 and 87.2 | reduction of the weighted severity score (all women, week 16 (Table 18)): 99.1±15.6 | decrease in weighted severity score (at 16 weeks): 53.4% | higher efficacy of DHEA than placebo on weighted severity score (at 16 weeks): 3.0 fold | decrease in frequency of all hot flushes (screening to week 16): 52.4% | decrease in number of moderate to severe hot flushes (screening to week 16): 54.5% | decrease in moderate to severe hot flushes [2]: 64.3% | greater inhibition by DHEA than placebo [2]: 65% | mean number of moderate to severe hot flushes per week (women having 71 or more hot flushes per week at screening, after DHEA treatment): 31.6±11.6 | mean number of moderate to severe hot flushes per week (women having 71 or more hot flushes per week at screening, screening value): 88.5±7.1 | decrease in weighted severity score (women having between 50 and 70 hot flushes per week): 43.5% | weighted severity score (women having between 50 and 70 hot flushes per week, screening): 144.3±6.7 | weighted severity score (women having between 50 and 70 hot flushes per week, week 16): 81.6±13.6 | decrease in moderate to severe hot flushes [3]: 43.3% | inhibition by DHEA over the placebo effect [3]: 43% | number of moderate to severe hot flushes per week (women having between 50 and 70 per week, prescreening): 56.7±1.3 | number of moderate to severe hot flushes per week (women having between 50 and 70 per week, week 6 as printed): 32.7±6.2 | decrease in number of all hot flushes (women having more than 70 hot flushes): 60% | decrease in weighted severity score (women having more than 70 hot flushes per week): 61.6% | weighted severity score (women having more than 70 hot flushes per week, screening): 241.6±21.1 | weighted severity score (women having more than 70 hot flushes per week, week 16): 95.2±34.3 | number of all hot flushes per week (prescreening): 91.0±7.0 | number of all hot flushes per week (week 16): 36.3±11.5 | greater efficacy of DHEA than placebo (women having the largest number of hot flushes of all degrees of severity): 50%
